Results published in ChEMBL document CHEMBL2440011, “Screening for inhibitors of the hepatitis C virus internal ribosome entry site RNA” (Bioorg Med Chem, 2013).
Active and inactive are the calls of the source. No cut-off for these calls is given here.

Experiments:
[1] = Binding affinity to 5'-terminal cyanine dye-labeled IRES subdomain 2a RNA (unknown origin) by FRET assay in presence of Mg2+
[2] = Binding affinity to 5'-terminal cyanine dye-labeled IRES subdomain 2a RNA (unknown origin) at 200 uM by FRET assay
[3] = tested on: Internal ribosome entry site (IRES); assay: Binding affinity to HCV IRES RNA assessed as inhibition of RNA translation at […] by luciferase reporter gene assay; settings: Hepacivirus hominis
[4] = Binding affinity to 5'-terminal cyanine dye-labeled IRES subdomain 2a RNA (unknown origin) at 200 uM by FRET assay in presence of tRNA
[5] = Binding affinity to cap RNA (unknown origin) assessed as inhibition of cap-dependent firefly luciferase reporter translation

With CN(C)CC1COc2ccc3nc4n(c3c2C1)CC(CN(C)C)CN4 (stereo not drawn) the Activity [1] was “Active”.

In the case of CN(C)CCCNc1nc2cc(N)ccc2o1, the Activity [2] is reported as “Active”.

With CN(C)CCCNc1nc2ccc(N)cc2o1 the inhibition [3] was 30%, the Activity [1] was “Dose-dependent effect” and the Activity [2] was “Active”. The Activity [4] was “Active” and the inhibition [5] was “inactive”.

For CN(C)CCCn1c(N)nc2ccc3c(c21)CC(CN(C)C)CO3 (stereo not drawn), the Activity [1] was “Dose-dependent effect”.
